Results taken from patent publication US12180388B2, “Method of treatment of a surface” (Conopco, Inc., priority 2018, dated 2024).

Experiments:
[1] = test system: Aspergillus brasiliensis; assay: Single-species biofilm (microfouling) growth inhibition, crystal violet biomass; type: cell-based; conditions: 24 hours, untreated control 1.1
Protocol: (§1) Fresh stock solution of lactam was prepared at 20 mM in DMSO. Lactam stock was then serially diluted in tissue culture plates in 100% ethanol first ten-fold and subsequently to the desired concentrations. Plates were then left to dry overnight in a fume hood.
(§2) Single species plates were inoculated with each 1×10^6 bacteria/Aspergillus in marine broth and left for 24 hours. Multispecies plates were inoculated with 1×10^5 S. algae, V. anguillarium V. alginolyticus and 1×10^6 C. marina, A. brasiliensis, P. atlantica, C. lytica in marine broth and left for 24 hours, 48 and 72 hours. Plates were washed twice and left overnight to dry. Crystal violet (0.05% w/v) was added for 20 minutes and destained using 100% ethanol. Biomass was measured by optical density (OD) at 570 nm.
(§3) In this experiment, the plates were treated with lactam at levels of 0.0312 mM to 2 mM as well as an untreated control. The specific levels of lactam measured were of 0.0312 mM, of 0.0625 mM, of 0.125 mM, of 0.25 mM, of 0.5 mM, 1 mM, and 2 mM. This would equate to levels of from ˜6 ppm ([…]) to 400 ppm (2 mM), and to wt. % of 0.0006 wt. % ([…]) to 0.04 wt. % (2 mM). The lactam was provided in a DMSO/ethanol solvent to the plates. The plate was then inoculated with the marine organism or mixture thereof. The rate of growth of the culture was measured after 24 hours days by optical density.

[2] = test system: Vibrio anguillarium; assay: as above; type: cell-based; conditions: 24 hours, untreated control 0.5
Protocol: as §1, §2, §3

[3] = test system: Cellulophaga lytica; assay: as above; type: cell-based; conditions: 24 hours; for Optical Density (570 nm): untreated control 0.7; for lactam concentration with biofilm growth inhibition effect: Cellulophaga lytica
Protocol: as §1, §2, §3

[4] = test system: mixture of the 7 marine organisms (Pseudoalteromonas atlantica, Cellulophaga lytica, Shewanella algae, Cobetia marina, Vibrio anguillarium, Vibrio …); assay: Multispecies biofilm (microfouling) growth inhibition, crystal violet biomass; type: cell-based, mixture of 7 marine organisms; conditions: for lactam concentration that inhibited biofilm growth: 7 marine organism mixture, 24, 48 and 72 hr
Protocol: as §2, with “Fresh stock solution of lactam was prepared at 20 mM in DMSO. Lactam stock was then serially diluted in tissue culture plates in 100% ethanol first ten-fold and subsequently to the desired concentrations. Plates were then left to dry overnight in a fume hood. Single” for “Single”
The marine species were as used for example 2: Shewanella algae, Cobetia marina, Vibrio alginolyticus, or Pseudoalteromonas atlantica, Aspergillus brasiliensis, Vibrio anguillarium, and Cellulophaga lytica. This time they were used in combination as a mixture to better model the marine environment, and the growth inhibition effect of the lactams on the challenging marine organism mixture was tested. This a challenging test as the presence of marine organisms where the lactam didn't have a growth inhibition effect would be expected to lead to biofilm growth. The results are shown in FIGS. 4 and 5 and Tables 2 and 3.

[5] = 0.0312 mM lactam, 24 hr, untreated control 1.3
[6] = 0.0312 mM lactam, 48 hr, untreated control 1.8
[7] = 0.0312 mM lactam, 72 hr, untreated control 1.1
[8] = 0.0625 mM lactam, 24 hr, untreated control 1.3
[9] = 0.0625 mM lactam, 48 hr, untreated control 1.8
[10] = 0.0625 mM lactam, 72 hr, untreated control 1.1
[11] = 0.125 mM lactam, 24 hr, untreated control 1.3
[12] = 0.125 mM lactam, 48 hr, untreated control 1.8
[13] = 0.125 mM lactam, 72 hr, untreated control 1.1
[14] = 0.25 mM lactam, 24 hr, untreated control 1.3
[15] = 0.25 mM lactam, 48 hr, untreated control 1.8
[16] = 0.25 mM lactam, 72 hr, untreated control 1.1
[17] = 0.5 mM lactam, 24 hr, untreated control 1.3
[18] = 0.5 mM lactam, 48 hr, untreated control 1.8
[19] = 0.5 mM lactam, 72 hr, untreated control 1.1
[20] = 1 mM lactam, 24 hr, untreated control 1.3
[21] = 1 mM lactam, 48 hr, untreated control 1.8
[22] = 1 mM lactam, 72 hr, untreated control 1.1
[23] = 2 mM lactam, 24 hr, untreated control 1.3
[24] = 2 mM lactam, 48 hr, untreated control 1.8
[25] = 2 mM lactam, 72 hr, untreated control 1.1

Compound: C=C1NC(=O)C=C1c1ccc(C)cc1 [lactam 491, 5-methylene-4-(p-tolyl)pyrrol-2-one]
- Optical Density (570 nm) ([1]; 0.0312 mM lactam): 0.4
- Optical Density (570 nm) ([1]; 0.0625 mM lactam): 0.5
- Optical Density (570 nm) ([1]; 0.125 mM lactam): 0.5
- Optical Density (570 nm) ([1]; 0.25 mM lactam): 0.5
- Optical Density (570 nm) ([1]; 0.5 mM lactam): 0.5
- Optical Density (570 nm) ([1]; 1 mM lactam): 0.3
- Optical Density (570 nm) ([1]; 2 mM lactam): 0.4
- Optical Density (570 nm) ([2]; 0.0312 mM lactam): 0.2
- Optical Density (570 nm) ([2]; 0.0625 mM lactam): 0.7
- Optical Density (570 nm) ([2]; 0.125 mM lactam): 0.7
- Optical Density (570 nm) ([2]; 0.25 mM lactam): 0.3
- Optical Density (570 nm) ([2]; 0.5 mM lactam): 0.4
- Optical Density (570 nm) ([2]; 1 mM lactam): 0.2
- Optical Density (570 nm) ([2]; 2 mM lactam): 0.1
- Optical Density (570 nm) ([3]; 0.0312 mM lactam): 0.9
- Optical Density (570 nm) ([3]; 0.0625 mM lactam): 1.0
- Optical Density (570 nm) ([3]; 0.125 mM lactam): 0.9
- Optical Density (570 nm) ([3]; 0.25 mM lactam): 0.9
- Optical Density (570 nm) ([3]; 0.5 mM lactam): 1.0
- Optical Density (570 nm) ([3]; 1 mM lactam): 0.5
- Optical Density (570 nm) ([3]; 2 mM lactam): 0.6
- lactam concentration with biofilm growth inhibition effect [3]: > 1 mM
- Optical Density (570 nm) [4, 5]: 1.2
- Optical Density (570 nm) [4, 6]: 1.7
- Optical Density (570 nm) [4, 7]: 1.3
- Optical Density (570 nm) [4, 8]: 1.1
- Optical Density (570 nm) [4, 9]: 1.8
- Optical Density (570 nm) [4, 10]: 1.2
- Optical Density (570 nm) [4, 11]: 0.9
- Optical Density (570 nm) [4, 12]: 1.6
- Optical Density (570 nm) [4, 13]: 1.0
- Optical Density (570 nm) [4, 14]: 0.9
- Optical Density (570 nm) [4, 15]: 1.4
- Optical Density (570 nm) [4, 16]: 0.9
- Optical Density (570 nm) [4, 17]: 1.0
- Optical Density (570 nm) [4, 18]: 1.2
- Optical Density (570 nm) [4, 19]: 0.9
- Optical Density (570 nm) [4, 20]: 0.7
- Optical Density (570 nm) [4, 21]: 1.3
- Optical Density (570 nm) [4, 22]: 1.2
- Optical Density (570 nm) [4, 23]: 0.2
- Optical Density (570 nm) [4, 24]: 0.2
- Optical Density (570 nm) [4, 25]: 0.3
- lactam concentration that inhibited biofilm growth [4]: > 0.25 mM

Compound: C=C1NC(=O)C=C1c1ccc(Cl)cc1 [lactam 488, 4-(4-chlorophenyl)-5-methylene-pyrrol-2-one]
- Optical Density (570 nm) ([1]; 0.0312 mM lactam): 0.5
- Optical Density (570 nm) ([1]; 0.0625 mM lactam): 0.6
- Optical Density (570 nm) ([1]; 0.125 mM lactam): 0.5
- Optical Density (570 nm) ([1]; 0.25 mM lactam): 0.4
- Optical Density (570 nm) ([1]; 0.5 mM lactam): 0.6
- Optical Density (570 nm) ([1]; 1 mM lactam): 0.5
- Optical Density (570 nm) ([1]; 2 mM lactam): 0.4
- Optical Density (570 nm) ([2]; 0.0312 mM lactam): 0.5
- Optical Density (570 nm) ([2]; 0.0625 mM lactam): 0.6
- Optical Density (570 nm) ([2]; 0.125 mM lactam): 0.7
- Optical Density (570 nm) ([2]; 0.25 mM lactam): 0.6
- Optical Density (570 nm) ([2]; 0.5 mM lactam): 0.2
- Optical Density (570 nm) ([2]; 1 mM lactam): 0.1
- Optical Density (570 nm) ([2]; 2 mM lactam): 0.1
- Optical Density (570 nm) ([3]; 0.0312 mM lactam): 0.9
- Optical Density (570 nm) ([3]; 0.0625 mM lactam): 0.9
- Optical Density (570 nm) ([3]; 0.125 mM lactam): 0.8
- Optical Density (570 nm) ([3]; 0.25 mM lactam): 0.8
- Optical Density (570 nm) ([3]; 0.5 mM lactam): 0.2
- Optical Density (570 nm) ([3]; 1 mM lactam): 0.2
- Optical Density (570 nm) ([3]; 2 mM lactam): 0.1
- lactam concentration with biofilm growth inhibition effect [3]: > 0.5 mM
- Optical Density (570 nm) [4, 5]: 1.3
- Optical Density (570 nm) [4, 6]: 1.5
- Optical Density (570 nm) [4, 7]: 1.4
- Optical Density (570 nm) [4, 8]: 1.4
- Optical Density (570 nm) [4, 9]: 1.8
- Optical Density (570 nm) [4, 10]: 1.4
- Optical Density (570 nm) [4, 11]: 1.2
- Optical Density (570 nm) [4, 12]: 1.7
- Optical Density (570 nm) [4, 13]: 1.2
- Optical Density (570 nm) [4, 14]: 1
- Optical Density (570 nm) [4, 15]: 1.3
- Optical Density (570 nm) [4, 16]: 1.0
- Optical Density (570 nm) [4, 17]: 0.6
- Optical Density (570 nm) [4, 18]: 0.6
- Optical Density (570 nm) [4, 19]: 0.4
- Optical Density (570 nm) [4, 20]: 0.3
- Optical Density (570 nm) [4, 21]: 0.2
- Optical Density (570 nm) [4, 22]: 0.1
- Optical Density (570 nm) [4, 23]: 0.1
- Optical Density (570 nm) [4, 24]: 0.1
- Optical Density (570 nm) [4, 25]: 0.1
- lactam concentration that inhibited biofilm growth [4]: > 0.25 mM
